Series [1] concerns HeLa. Kind of series: Cytotoxicity against human HeLa cells assessed as cell survival in dark at 100 nM after 24 hrs by WST8 assay. It is filed as functional, cell-based. On the technique in general: Tetrazolium assays rely on reduction of a dye to a coloured formazan, in cell work by metabolically active cells.
Series [2] in a line: Lipophilicity, log P of the compound. The class given is physicochemical. Particulars: octanol/water.
The test system of series [3] is HeLa. Kind of series: Phototoxicity against human HeLa cells irradiated with 16Jcm'-2 from halogen lamp assessed as cell survival at 100 nM after 24 hrs by WST8 assay. It is filed as functional, cell-based. Particulars: light or radiation study.
Series [4] has as its system HeLa. The experiment in a line: Drug uptake in human HeLa cells at 80 nM after 24 hrs relative to TPPS. It is filed as ADME, cell-based. Particulars: 0.08 µM.
The test system of series [5] is HeLa. The experiment in a line: Phototoxicity in human HeLa cells assessed as induction of apoptotic bodies at 500 nM after 3 hrs using DAPI staining by confocal laser scanning microscopy. It is filed as functional, cell-based.
In series [6] the test system is HeLa. Kind of series: Phototoxicity in human HeLa cells assessed as induction of cell shrinkage at 500 nM after 3 hrs using DAPI staining by confocal laser scanning microscopy. It is filed as functional, cell-based.

The source of these data is ChEMBL document CHEMBL1156898, “Synthesis, photophysical properties and photocytotoxicity of mono-, di-, tri- and tetra-glucosylated fluorophenylporphyrins” (Bioorg Med Chem, 2010).

Calls of active or inactive are those of the source. The rule behind the calls is not given here.

As to `OC[C@H]1O[C@@H](Sc2c(F)c(F)c(-c3c4nc(c(-c5c(F)c(F)c(S[C@@H]6O[C@H](CO)[C@@H](O)[C@H](O)[C@H]6O)c(F)c5F)c5ccc([nH]5)c(-c5c(F)c(F)c(F)c(F)c5F)c5nc(c(-c6c(F)c(F)c(F)c(F)c6F)c6ccc3[nH]6)C=C5)C=C4)c(F)c2F)[C@H](O)[C@@H](O)[C@@H]1O`, the values for the Activity entry in the series with HeLa [1] and with HeLa [4] were “Not toxic” and “Active”, respectively. Moreover, the logP in series [2] came to 3.98. Further, the % survival with HeLa [3] amounted to 90%.
The like results for `OC[C@H]1O[C@@H](Sc2c(F)c(F)c(-c3c4nc(c(-c5c(F)c(F)c(F)c(F)c5F)c5ccc([nH]5)c(-c5c(F)c(F)c(F)c(F)c5F)c5nc(c(-c6c(F)c(F)c(F)c(F)c6F)c6ccc3[nH]6)C=C5)C=C4)c(F)c2F)[C@H](O)[C@@H](O)[C@@H]1O` were, in that order, “Not toxic”, “Active”, 5.11 and 90%.
As for `OC[C@H]1O[C@@H](Sc2c(F)c(F)c(-c3c4nc(c(-c5c(F)c(F)c(F)c(F)c5F)c5ccc([nH]5)c(-c5c(F)c(F)c(S[C@@H]6O[C@H](CO)[C@@H](O)[C@H](O)[C@H]6O)c(F)c5F)c5nc(c(-c6c(F)c(F)c(F)c(F)c6F)c6ccc3[nH]6)C=C5)C=C4)c(F)c2F)[C@H](O)[C@@H](O)[C@@H]1O`, the results for the Activity entry in the series with HeLa [1] and with HeLa [4] were “Not toxic” and “Active”, respectively. In series [2], this molecule showed a lipophilicity (logP) of 3.53. In addition, the outcome in the series on HeLa [5] and in the series on HeLa [6] was Active. Moreover, the % survival in the series with HeLa [3] was below 5%.
For `OC[C@H]1O[C@@H](Sc2c(F)c(F)c(-c3c4nc(c(-c5c(F)c(F)c(S[C@@H]6O[C@H](CO)[C@@H](O)[C@H](O)[C@H]6O)c(F)c5F)c5ccc([nH]5)c(-c5c(F)c(F)c(S[C@@H]6O[C@H](CO)[C@@H](O)[C@H](O)[C@H]6O)c(F)c5F)c5nc(c(-c6c(F)c(F)c(F)c(F)c6F)c6ccc3[nH]6)C=C5)C=C4)c(F)c2F)[C@H](O)[C@@H](O)[C@@H]1O`, the Activity entry with HeLa [1] is “Not toxic”; in the series with HeLa [4], “Active”. In series [2], this molecule came in with a logP of 2.99. Moreover, in the series with HeLa [3], the % survival amounted to 80%.
In the case of `OC[C@H]1O[C@@H](Sc2c(F)c(F)c(-c3c4nc(c(-c5c(F)c(F)c(S[C@@H]6O[C@H](CO)[C@@H](O)[C@H](O)[C@H]6O)c(F)c5F)c5ccc([nH]5)c(-c5c(F)c(F)c(S[C@@H]6O[C@H](CO)[C@@H](O)[C@H](O)[C@H]6O)c(F)c5F)c5nc(c(-c6c(F)c(F)c(S[C@@H]7O[C@H](CO)[C@@H](O)[C@H](O)[C@H]7O)c(F)c6F)c6ccc3[nH]6)C=C5)C=C4)c(F)c2F)[C@H](O)[C@@H](O)[C@@H]1O`, the values for the Activity entry in the series with HeLa [1] and in the series with HeLa [4] were “Not toxic” and “Active”, respectively. For the same molecule, the logP in series [2] came to 0.75. In addition, the % survival with HeLa [3] came out at 90%.

A word on the logP: it is the decadic logarithm of the partition coefficient of the neutral form, usually between octanol and water. Read a high logP as a more lipophilic compound.
